Here are results for one compound from article PMC11424896, “Overcoming drug resistance of cancer cells by targeting the FGF1/FGFR1 axis with honokiol or FGF ligand trap” (Frontiers in Pharmacology, 2024).

The test concerns the target T1, full-length FGFR1c (Homo sapiens, UniProt P11362).
T1 construct: gene FGFR1; full-length FGFR1c, pcDNA3.1, stably transfected in U2OS cells (U2OSR1)
In words: Western blot of FGFR phosphorylation (pTyr653/[…]) in U2OSR1 cells. To be noted: 30 µM honokiol pre-treatment, then 10 ng/mL FGF1 with heparin, 15 min; serum-starved cells. Type of test: cell-based.

T1 sequence (P11362 22-822): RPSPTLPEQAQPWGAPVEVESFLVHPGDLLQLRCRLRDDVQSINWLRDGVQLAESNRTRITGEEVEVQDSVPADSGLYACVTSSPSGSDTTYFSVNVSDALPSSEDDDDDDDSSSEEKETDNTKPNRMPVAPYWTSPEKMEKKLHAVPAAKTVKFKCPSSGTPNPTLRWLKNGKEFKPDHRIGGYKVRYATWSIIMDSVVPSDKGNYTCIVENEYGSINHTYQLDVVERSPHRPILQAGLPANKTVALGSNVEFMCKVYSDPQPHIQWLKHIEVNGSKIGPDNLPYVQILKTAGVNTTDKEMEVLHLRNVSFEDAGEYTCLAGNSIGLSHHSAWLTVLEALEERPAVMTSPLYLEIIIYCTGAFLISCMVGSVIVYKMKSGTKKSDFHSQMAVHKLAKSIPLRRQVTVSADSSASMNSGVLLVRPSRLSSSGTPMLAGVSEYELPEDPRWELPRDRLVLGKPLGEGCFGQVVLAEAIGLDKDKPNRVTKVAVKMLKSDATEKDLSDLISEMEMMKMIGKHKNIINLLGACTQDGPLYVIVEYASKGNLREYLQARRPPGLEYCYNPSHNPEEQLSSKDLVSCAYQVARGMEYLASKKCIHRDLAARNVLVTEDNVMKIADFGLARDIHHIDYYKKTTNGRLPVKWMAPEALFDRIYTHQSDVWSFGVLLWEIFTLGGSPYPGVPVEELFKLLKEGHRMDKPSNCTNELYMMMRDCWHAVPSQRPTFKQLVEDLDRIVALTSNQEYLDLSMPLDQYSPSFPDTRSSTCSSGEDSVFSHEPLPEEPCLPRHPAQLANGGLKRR

As for `C=CCc1ccc(O)c(-c2ccc(O)c(CC=C)c2)c1` [honokiol], the “p-FGFR inhibition at 30 μM” value is listed as “in cells treated with honokiol, FGF1 did not induce activation of either FGFR”.
